# Assay results reported in the METLIN SMRT retention time set (Domingo-Almenara et al. 2019).
# Test: gradient 5% acetonitrile 3 min, to 50% in 2 min, to 85% in 15 min, held 3 min, 100 µL/min
# Conditions: column: Zorbax Extend-C18 2.1 x 50 mm; eluents: water / acetonitrile, 0.1% formic acid
# In short: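 Each retention time is based on an adduct peak selected computationally and verified by manual inspection. Measurements used HPLC–quadrupole time-of-flight mass spectrometry in positive and negative ionization mode on mixtures of ~100 pure standards. Chromatography ran on a Zorbax Extend-C18 column (2.1 × 50 mm, 1.8 μm) at 100 μL/min with water and acetonitrile, each containing 0.1% formic acid, and dead and dwell volumes of 40 μL and 900 μL.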
row,SMILES,RP-LC retention time [s]
1,COc1ccc(-c2noc(Cc3nnc(-c4cccc(Br)c4)o3)n2)cc1,1100
2,CN1c2cc(C(=O)N3CCN(c4ccccn4)CC3)ccc2C(=O)N2CCCCC21 (configuration not stated),588
3,CN1CCC(NC(=O)c2n[nH]c3c2CN(C(=O)c2ccc(F)cc2F)CC3)CC1,578
4,CCN1CCCC1CNC(=O)c1nnc(-c2ccc(S(=O)(=O)N3CCOCC3)cc2)o1 (configuration not stated),599
5,COCc1cn(C2CN(C(=O)COc3ccccc3)C2)nn1,642
6,CN(C)c1ncncc1N1CCC(C(=O)N2CCN(c3cccc(Cl)c3)CC2)CC1,722
7,Cc1ccc2cc(CCC(=O)NCCN3CCOCC3)c(=O)[nH]c2c1,594
8,Clc1ccc(CCCOCCCN2CCCCC2)cc1,744
9,COC(=O)C1=CN(C2CC2)c2cc(N3CCC4(CC3)OCCO4)c(F)cc2S1(=O)=O,806
10,CC1=C(c2ccc(Cl)cc2)S(=O)(=O)N=C1N1CCCN(C(=O)NCC(C)C)CC1,845
11,CN(C)C1CCc2[nH]c3c(F)cc(F)cc3c2C1 (configuration not stated),685
12,CCOc1cccc(-c2noc(Cn3ncn4nc(-c5cccs5)cc4c3=O)n2)c1,1140
13,Cc1cc(Cl)ccc1S(=O)(=O)N1CCC(F)(c2nc(CC(C)C)no2)CC1,1260
14,Cn1cnnc1SCC(=O)N1CCCc2ccccc21,636
15,CC(C)CN1CCN(C(=O)CN2CCN(Cc3ccccc3)C2=O)CC1,579
16,CCn1cnc(S(=O)(=O)N2CCC(C(=O)Nc3cccc4c3CCCC4)CC2)c1,792

# More lines, now with the values ahead:
row,RP-LC retention time [s],SMILES
1,884,Cn1nc(-c2nnc(-c3ccccc3)o2)c2c1CCN(S(=O)(=O)c1cccc(C#N)c1)C2
2,894,Cc1cc2c(c(=O)n(-c3ccc(F)cc3)c(=O)n2CC(=O)Nc2ccc(Cl)cc2F)n1C
3,846,CC(C)NC(=O)c1nc2ccccn2c1-c1ccc(Cl)cc1
4,840,CCn1nccc1C(=O)N1CCCC1c1ccccc1F (configuration not stated)
5,703,CCCNc1cc(N2CCCC(CCC(=O)Nc3ccccc3)C2)ncn1 (configuration not stated)
6,905,Cc1ccc(CNC(=O)c2ccc(-c3ccsc3)nc2)cc1
7,929,Cc1ccc(C)c(NC(=O)N2CCC(n3cnc4ccc(Cl)cc4c3=O)CC2)c1
8,791,COC(=O)c1c(C)sc(-c2c(-c3ccc(Br)cc3)[nH]c3[nH]c(=O)[nH]c(=O)c23)c1O
9,887,CCC1Oc2ccc(S(=O)(=O)N3CCC(C(=O)NCc4ccc(Cl)cc4)CC3)cc2NC1=O (configuration not stated)
10,736,Cc1cccc(NC(=O)CC2COc3ccccc3NC2=O)c1C (configuration not stated)
11,1160,CC1CCC(NC(=O)c2nnn(Cc3ccc(F)cc3)c2-n2cccc2)CC1 (configuration not stated)
12,746,Cc1sc2ccn(C)c(=O)c2c1C(=O)N1CCN(c2ccc(F)cc2)CC1
13,714,CCCC(=O)NC1CCN(c2ccc(C)cc2)C1=O (configuration not stated)
14,1030,CCOc1ccc(N(C)S(=O)(=O)c2ccsc2C(=O)NC2CCCC2)cc1
15,793,Cc1ccc2nc(-c3ccccc3F)c(Nc3c(C)cccc3C)n2c1
16,1140,Cc1cccc(-c2noc(-c3nn(CC(=O)NCc4cccs4)c4ccccc34)n2)c1
17,1200,CC1Oc2ccccc2N(Cc2nc(-c3cccc(Br)c3)no2)C1=O (configuration not stated)
18,872,Cc1cccc(Nc2nnc(CC(=O)Nc3cc(F)ccc3Cl)s2)c1
19,758,CCN1C(=O)CCc2cc(NS(=O)(=O)c3cccc4cccnc34)ccc21
20,831,O=C(Cn1ncc2c(c1=O)N(CC1CC1)C(=O)CS2)Nc1ccccc1C(F)(F)F
21,631,CCOC(=O)c1ccc(NC(=O)Nc2c(-c3ccncc3)nc3ccccn23)cc1
